From PMC10630888, “Nuclear ERK1/2 signaling potentiation enhances neuroprotection and cognition via Importinα1/KPNA2” (EMBO Molecular Medicine, 2023)
Several values for one entry are separate records, joined by “and”; a condition that tells them apart may be missing. Equal entries are not always repeated.

Tests used:
ERK1/2 in HEK293 cells = experiment: ERK1/2 immunofluorescence (nuclear translocation) in HEK293 cells; format: cell-based; details: HEK293, siRNA 200 nM 24 h, then RB5 50 μM 15 min
Procedure: For Western blot and immunofluorescence analysis, 0.6 × 10^6 HEK293 cells were seeded in 6‐well plates in the presence of DMEM High Glucose GlutaMax (Thermo Fisher Scientific) containing 10% Foetal Bovine Serum (FBS, Thermo Fisher Scientific) and 100 U/ml penicillin/streptomycin (Thermo Fisher Scientific). For Western blot analysis to assess ERK1/2 and phospho‐ERK1/2 levels, cells were serum starved for 24 h and incubated with RB5 50 μM or FBS 20% for 15 min at 37°C. To assess JNK and phospho‐JNK levels, cells were incubated with RB5 50 μM or anisomycin 5 μM for 30 min at 37°C. For immunofluorescence analysis, cells were serum‐starved for 24 h and incubated with 50 μM RB5 or 20% FBS for 15 min at 37°C.
After rinsing in PBS, cells were fixed in 4% PFA and permeabilized with increasing concentrations of methanol (33, 50, 75, and 95% in PBS, 2 min each at room temperature), followed by 100% methanol for 10 min at −20°C. […] The mean fluorescence intensity in the nucleus was calculated automatically by Fiji‐ImageJ software in 8–10 fields per slide. […]

pERK in DG = experiment: pERK in dentate gyrus of Tg2576 mice; format: in vivo, mouse; details: for pERK in dentate gyrus (Fig 5 panel k): individual animals
Procedure: Immunohistochemistry was performed as described in Papale et al ([2016]). Briefly, 1 h after blocking in 5% normal goat serum and 0.1% Triton X‐100 solution, free‐floating sections were incubated overnight at 4°C with one of the following primary antibodies: anti‐phospho‐p44/42 MAP kinase (Thr202/Tyr204) (1:200, Cell Signaling Technology #9101), anti‐phospho–Elk‐1 (Ser383) (1:100, Cell Signaling #9181), anti‐phospho‐Kv4.2 (Thr607)‐R (1:100, Santa Cruz sc22254‐R), anti‐phospho‐MSK‐1 (1:100 Cell Signaling Technology #9595), anti‐phospho‐MEK1/2 (Ser218/222) (1:100, sc‐7995 Santa Cruz Biotechnology), c‐Fos (1:100, sc‐52 Santa Cruz Biotechnology), tyrosine Hydroxylase (monoclonal 1:1,000, Sigma Aldrich, Italy) and anti‐DARPP‐32 (H3) (1:100, Santa Cruz Biotechnology, #sc‐271111) overnight at 4°C. Sections were then incubated with biotinylated goat anti‐rabbit IgG (1:200, Vector Laboratories) or biotinylated goat anti‐mouse (1:200, Vector Laboratories) for 2 h. The classic avidin‐peroxidase complex (ABC, Vector, UK) protocol was applied, using 3,3′‐diaminobenzidine (DAB, Sigma) as a chromogen.
Tg2576 mice were administered with RB5 or Scramble (20 mg/kg i.p.) for either 7 days, for IHC analysis, or with a single injection (20 mg/kg i.p.), for behavioral analysis.

[1] = system: ERK phosphorylation (pERK); experiment: pERK dose-response in acute striatal slices (ex vivo); format: cell-based, mouse; details: fresh acute striatal slices from adult mice, RB5 0.5–100 μM, 1 h at 32°C; GraphPad Prism; n = 8–12 slices per group; read-out: EC50 of pERK enhancement (ERK activation)
Procedure: Adult C57Bl/6 mice were decapitated after cervical dislocation and brain slices were freshly prepared as previously described in Orellana et al ([2012]) and Papale et al ([2016]). Briefly, the brains were rapidly removed from the skull, submerged in ice‐cold sucrose‐based dissecting solution, and sliced into 200 μm‐thick slices using a vibratome. […] After a rapid fixation in 4% PFA, slices were rinsed and cryoprotected overnight at 4°C in 30% sucrose solution. On the following day, slices were cut into 18 μm‐thick slices using a cryostat (Leica CM1850), mounted onto SuperFrost Plus slides (Thermo Scientific) and stored at −20°C until processing for immunohistochemistry or immunofluorescence.
Immunohistochemistry was performed as described in Papale et al ([2016]). […]
For ex‐vivo immunohistochemistry experiments, images were acquired from the dorsal striatum using a bright‐field microscope (Macro/Micro Imaging System, Leica) under a 40× magnification. Neuronal quantification was performed with ImageJ software by counting the number of phospho‐ERK positive cells in two sections for each sample in three fields per section. […] The EC50 for pERK was calculated using GraphPad Prism software.

“GRKKRRQRRRPPQGGGGGEPRRTEGVGPGVPGEVEMVKGQPFDV [RB5, six D-amino acids, acetylated N-terminus]” was tested, and the “ERK1/2 nuclear translocation after KPNA2 downregulation” value (ERK1/2 in HEK293 cells) was “did not further enhance ERK1/2 nuclear translocation”, the “ERK phosphorylation in dentate gyrus” value (pERK in DG; Tg2576 mice, 7 months old, 20 mg/kg i.p. for 7 days) was “restored ERK phosphorylation” and the “pERK in dentate gyrus (Fig 5 panel k)” value (pERK in DG; Tg2576 mice) was 11.21 and 6.88 and 9.13 and 7.17 and 10.84 and 11.62 and 10.66 and 8.7. The “pERK in dentate gyrus (Fig 5 panel k)” value (pERK in DG; WT mice) was 8.18 and 9.67 and 8.87 and 7.48 and 10.41 and 9.92 and 13.01 and the EC50 [1] was 3.4 µM.
